Experiments:
[1] = molecular target: dopamine D1 receptor (Homo sapiens, UniProt P21728); experiment: dopamine D1 receptor activity; assay type: binding; conditions: no activity
[2] = test system: Caspase 3/7 activity in rat activated hepatic stellate cells; experiment: Caspase-Glo 3/7 assay in rHSC; assay type: cell-based; conditions: FIG. 7
Experimental: Compound A was evaluated for activity in inducing Caspase 3/7 activity. Caspase 3 is involved in regulating apoptosis, and increases in Caspase 3 activity in this assay correlate to increased levels of apoptosis.
General Procedure: The assay was performed based on the following protocol: • 1. Passage rHSC at an appropriate density on a 96 well format and allow to adhere overnight. • 2. Treat cells with inhibitors for an appropriate length of time including the relevant controls. • 3. Allow both buffer and substrate to reach room temperature. • 4. Immediately prior to use, resuspend the substrate in 2.5 mL of buffer and mix thoroughly. • 5. Remove cells from incubator and allow the plates to cool to room temperature. • 6. Add Caspase-Glo® reagent at a 1:1 ratio (i.e. 100 μL to 100 μL media) and shake at 300 rpm for 30 sec. • 7. Incubate cells with Caspase-Glo® reagent for 2 h at room temperature protected from light. • 8. Transfer all media to white walled luciferase plates and determined luminescence using the MicroBeta luminometer. • 9. Caspase activity is expressed as fold-change relative to the untreated control.
Caspase-Glo® 3/7 reagent is available from Promega (Calif., USA). The Caspase-Glo® reagent contains a DEVD-caspase substrate which is selectively cleaved by caspase enzymes 3 and 7. […]

[3] = molecular target: dopamine D5 receptor (Homo sapiens, UniProt P21918); experiment: dopamine D5 receptor activity; assay type: binding; conditions: no activity
dopamine D5 receptor, sequence (P21918 whole entry): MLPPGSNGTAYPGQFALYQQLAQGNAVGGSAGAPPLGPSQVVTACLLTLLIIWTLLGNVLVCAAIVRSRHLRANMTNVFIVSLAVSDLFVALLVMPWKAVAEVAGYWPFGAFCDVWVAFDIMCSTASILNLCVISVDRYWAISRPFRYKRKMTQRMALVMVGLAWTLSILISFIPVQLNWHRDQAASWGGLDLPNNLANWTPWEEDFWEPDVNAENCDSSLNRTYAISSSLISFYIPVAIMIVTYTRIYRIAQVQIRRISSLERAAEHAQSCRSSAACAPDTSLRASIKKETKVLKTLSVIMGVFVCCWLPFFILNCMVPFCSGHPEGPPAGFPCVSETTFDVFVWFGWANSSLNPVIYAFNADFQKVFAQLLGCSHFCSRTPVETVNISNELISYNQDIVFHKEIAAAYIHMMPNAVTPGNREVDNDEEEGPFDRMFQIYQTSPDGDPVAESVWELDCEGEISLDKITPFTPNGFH

[4] = test system: human activated hepatic myofibroblasts (primary activated hepatic stellate cells); experiment: apoptosis of human activated hepatic myofibroblasts; assay type: cell-based; conditions: overnight incubation
Experimental: Compound A was tested on human activated hepatic myofibroblasts. The tested human cells were primary activated hepatic stellate cells isolated from normal human liver resected during removal of adjacent tumour tissue in patients with primary liver cancer. The cells were then cultured on plastic in full media and passaged at least 4 times to generate pure activated activated hepatic stellate cells, representing the major fibrogenic cell of the liver.

[5] = molecular target: more than 51 receptors including GPCRs, ion channels and receptor tyrosine kinases; experiment: panel of more than 51 receptors; assay type: binding; conditions: almost no affinity, read-out: Ki, more than 51 receptors tested
[6] = test system: liver fibrosis induced by monocrotaline (MCT); experiment: monocrotaline (MCT) model, hepatic fibrosis analysis; assay type: in vivo
Experimental: (§1) Compound A was assayed for effects on lung and liver lesions, as well as liver fibrosis in animals suffering from liver fibrosis induced by monocrotaline (MCT).
(§2) General Procedure: In this assay, animals were treated with MCT/vehicle, MCT with phosphate-buffered saline (PBS), or MCT with compound A. Following treatment, animals were sacrificed, and lung tissue was perfused and fixed in 10% neutral buffered formalin via the trachea. Lung and liver tissue was removed, sectioned and stained with hematoxylin-eosin. 41 liver and 41 lung slides were obtained for histologic evaluation. All slides were scored blindly without knowledge of experimental conditions. Lung and liver slides were evaluated according to the criteria listed below. Each parameter was subjectively evaluated and scored from 0-5, with 0 being no discernable lesions and 5 indicating the most severe lesions. Final scores for both the liver and lung lesions were calculated by averaging all parameters for each individual tissue.
(§3) • 1. Capsular fibrin • 2. Interlobular fibrosis • 3. Zone 1, 2, 3 necrosis • 4. Central vein, portal vein necrosis • 5. Sinusoidal spaces (hepatocytes dropout) • 6. Spaces of Disse • 7. Bile duct • 8. Bile caniliculi • 9. Kupffer cells • 10. Hepatocyte appositional surfaces • 11. Cell and nuclear size variation • 12. Cytoplasm variation
There were varying degrees of myofibroblast proliferation and collagen deposition surrounding portal tracts with occasional bridging into zones two and three. Bile duct proliferation was occasionally associated with areas of fibrosis.

[7] = molecular target: dopamine D3 receptor (Homo sapiens, UniProt P35462); experiment: dopamine D3 receptor affinity; assay type: binding; conditions: moderate activity
dopamine D3 receptor, sequence (P35462 whole entry, species assumed): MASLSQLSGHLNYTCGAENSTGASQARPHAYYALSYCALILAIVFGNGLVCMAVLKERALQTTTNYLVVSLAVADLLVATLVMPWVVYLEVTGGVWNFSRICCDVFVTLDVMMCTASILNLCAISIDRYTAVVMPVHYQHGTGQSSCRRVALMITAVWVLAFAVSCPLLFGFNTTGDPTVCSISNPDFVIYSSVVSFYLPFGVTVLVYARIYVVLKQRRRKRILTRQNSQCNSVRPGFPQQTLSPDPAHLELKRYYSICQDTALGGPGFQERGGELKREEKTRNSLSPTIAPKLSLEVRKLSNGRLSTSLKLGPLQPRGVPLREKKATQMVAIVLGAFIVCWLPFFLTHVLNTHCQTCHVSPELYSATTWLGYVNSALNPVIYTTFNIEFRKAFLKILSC

[8] = test system: liver lesions induced by monocrotaline (MCT); experiment: monocrotaline (MCT) model, liver lesion scoring; assay type: in vivo; conditions: for liver lesion severity score compared to Vehicle+PBS control: p<0.05
Experimental: as §1, §2, §3

[9] = test system: rat activated hepatic myofibroblasts; experiment: acridine orange assay for morphological assessment of apoptosis; assay type: cell-based; conditions: 1 μM dose
Experimental: The compound 5-((4-(6-chlorothieno[2,3-d]pyrimidin-4-ylamino)piperidin-1-yl)methyl)-2-fluorobenzonitrile (hereinafter “compound A”), was evaluated for activity in promoting apoptosis of rodent and human activated hepatic myofibroblasts. The activity of compound A was compared against untreated cells, cells treated with dimethylsulfoxide, and cells treated with spiperone. Spiperone is a nonselective 5-HT2B antagonist. In the acridine orange assay for morphological assessment of apoptosis, compound A dose-dependently promotes elevated rates of apoptosis of rat activated hepatic myofibroblasts (40% of cells apoptotic with 1 μM dose). The results of the acridine orange assay are depicted in FIGS. 1-4.

[10] = molecular target: σ receptors; experiment: σ receptor functional assays (agonist activity); assay type: biochemical; conditions: very weak agonist
[11] = molecular target: dopamine D2 receptor (Homo sapiens, UniProt P14416); experiment: dopamine D2 receptor antagonism; assay type: biochemical; conditions: weak antagonist
dopamine D2 receptor, sequence (P14416 whole entry, species assumed): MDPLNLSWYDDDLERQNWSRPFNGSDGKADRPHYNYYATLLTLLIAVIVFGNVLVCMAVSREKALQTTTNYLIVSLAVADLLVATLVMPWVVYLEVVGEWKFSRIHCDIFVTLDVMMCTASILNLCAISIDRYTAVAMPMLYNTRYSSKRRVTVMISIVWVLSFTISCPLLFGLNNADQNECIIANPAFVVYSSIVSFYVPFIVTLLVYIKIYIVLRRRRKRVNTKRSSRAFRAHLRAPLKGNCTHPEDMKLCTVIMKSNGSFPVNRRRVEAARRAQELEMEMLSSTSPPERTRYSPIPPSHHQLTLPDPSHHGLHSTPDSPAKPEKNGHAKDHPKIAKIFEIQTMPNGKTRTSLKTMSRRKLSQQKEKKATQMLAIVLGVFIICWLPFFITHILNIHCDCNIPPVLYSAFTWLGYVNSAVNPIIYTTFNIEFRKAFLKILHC

[12] = test system: lung lesions induced by monocrotaline (MCT); experiment: monocrotaline (MCT) model, lung lesion scoring; assay type: in vivo
Experimental: as §1, §2
• 1. Alveolar edema • 2. Congestion • 3. Intra-alveolar hemorrhage • 4. Alveolar macrophage infiltrate • 5. Degree of erythrophagocytosis • 6. Degree of hemosiderosis • 7. Thickening of alveolar septa • 8. Type II pneumocyte hyperplasia • 9. General arterial thickening • 10. Thickening of tunica intima • 11. Thickening of tunica media • 12. Thickening of tunica adventitia • 13. Degree of perivascular edema. • 14. Perivascular inflammatory cells (lymphs and plasma cells) • 15. Increased BALT • 16. Endothelial reactivity and prominence.

[13] = molecular target: σ2 receptor (Homo sapiens, UniProt Q5BJF2); experiment: σ2 receptor binding; conditions: moderate binding
σ2 receptor, sequence (Q5BJF2 whole entry): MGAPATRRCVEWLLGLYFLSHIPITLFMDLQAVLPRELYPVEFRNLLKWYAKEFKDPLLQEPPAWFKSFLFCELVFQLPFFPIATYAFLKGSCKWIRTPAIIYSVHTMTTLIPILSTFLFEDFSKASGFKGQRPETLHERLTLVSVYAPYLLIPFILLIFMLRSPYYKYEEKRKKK

[14] = test system: all other 5-HT receptor subtypes; experiment: affinity for the other 5-HT receptor subtypes; assay type: binding; conditions: 5-HT2B versus all other 5-HT subtypes, except 5-HT1A
[15] = molecular target: σ1 receptor (Homo sapiens, UniProt Q99720); experiment: σ1 receptor binding; conditions: moderate binding
σ1 receptor, sequence (Q99720 whole entry): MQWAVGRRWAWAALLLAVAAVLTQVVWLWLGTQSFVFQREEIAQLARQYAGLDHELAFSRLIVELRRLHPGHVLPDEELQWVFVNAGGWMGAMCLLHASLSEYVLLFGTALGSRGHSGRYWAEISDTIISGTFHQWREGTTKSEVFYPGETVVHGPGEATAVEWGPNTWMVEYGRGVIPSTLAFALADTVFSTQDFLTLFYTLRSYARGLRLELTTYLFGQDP

dopamine D1 receptor, sequence (P21728 whole entry): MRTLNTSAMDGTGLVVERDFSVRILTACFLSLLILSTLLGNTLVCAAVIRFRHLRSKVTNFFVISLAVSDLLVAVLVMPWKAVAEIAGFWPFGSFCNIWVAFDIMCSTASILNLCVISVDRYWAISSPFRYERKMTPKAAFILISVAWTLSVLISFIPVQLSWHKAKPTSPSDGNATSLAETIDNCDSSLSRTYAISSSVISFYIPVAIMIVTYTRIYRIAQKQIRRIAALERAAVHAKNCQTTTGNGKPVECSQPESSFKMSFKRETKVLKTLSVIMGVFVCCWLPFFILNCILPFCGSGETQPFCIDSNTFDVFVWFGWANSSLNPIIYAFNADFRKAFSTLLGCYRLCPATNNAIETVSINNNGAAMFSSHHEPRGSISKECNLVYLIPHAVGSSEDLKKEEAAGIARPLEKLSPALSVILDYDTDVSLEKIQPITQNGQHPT

SMILES: N#Cc1cc(CN2CCC(Nc3ncnc4sc(Cl)cc34)CC2)ccc1F [compound A, 5-((4-(6-Chlorothieno[2,3-d]pyrimidin-4-ylamino)piperidin-1-yl)methyl)-2-fluorobenzonitrile]
- Ki [1]: > 5000 nM
- Caspase activity (fold-change relative to the untreated control) [2]: increased Caspase activity in a time-dependent fashion
- Ki [3]: > 5000 nM
- apoptosis ([4]; 1 μM): 20%
- apoptosis ([4]; 100 μM): 60%
- Ki [5]: > 1000 nM
- degree of periportal fibrosis ([6]; monocrotaline + 50 mg/kg): minimal to mild fibrosis
- livers with periportal fibrosis ([6]; monocrotaline + 50 mg/kg, 4 out of 8 livers): 50%
- degree of periportal fibrosis ([6]; monocrotaline + 100 mg/kg): negligible-very minimal (1 small triad) fibrosis
- livers with periportal fibrosis ([6]; monocrotaline + 100 mg/kg, 1 out of 13 livers): 7%
- Ki [7]: ~310 nM
- liver lesion severity score compared to Vehicle+PBS control ([8]; 50 mg/kg + MCT): significant increase
- liver lesion severity score compared to Vehicle+PBS control ([8]; 100 mg/kg + MCT): significant increase
- periportal necrosis, histology (FIG. 11) ([8]; MCT + 50 mg/kg, Part B compared to Part A (vehicle + MCT)): slightly reduced
- periportal necrosis, histology (FIG. 11) ([8]; MCT + 100 mg/kg, Part C): further reduction of periportal necrosis
- sinusoidal cells with small, condensed nuclei (may represent apoptotic stellate cells) ([8]; groups receiving 50 mg/kg and 100 mg/kg): Moderate numbers
- cells apoptotic [9]: 40%
- EC50 [10]: ~10000 nM
- IC50 [11]: 670 nM
- lung lesion score versus Vehicle+MCT group ([12]; 50 mg/kg + MCT, p=0.09): lower lesion score
- lung lesion score versus Vehicle+MCT group ([12]; 100 mg/kg + MCT, p<0.01, similar to Vehicle+PBS group): reduced in severity
- MCT-induced pulmonary lesion, histology (FIG. 11) ([12]; MCT + 50 mg/kg, Part B): improvement of MCT-induced pulmonary lesion
- MCT-induced pulmonary lesions, histology (FIG. 11) ([12]; MCT + 100 mg/kg, Part C, compared to Part B): further reduction of MCT-induced pulmonary lesions
- Ki [13]: 110 nM
- differences in receptor affinities compared with all other 5-HT receptor subtypes [14]: more than 500 fold
- Ki [15]: 100 nM
